Where “and” joins values, the source holds several entries; their conditions need not be identical. Equal values may be shown once. Read-outs that look alike come from different tables or passages of the source.
Target: T1, SARS CoV-2 M^pro (Severe acute respiratory syndrome coronavirus 2, UniProt P0DTD1)
T1 construct: The main protease (M^pro) is a part of the polyprotein chain, also named 3C-like protease; SUMO (cleaved yes); His; made in house; host or cells: Escherichia coli BL21(DE3)
Experiment: biochemical
Assay type: biochemical
Conditions: for inhibition at 80 µM: read-out: Inhibition%(80μM)

O=C1O[C@H]2[C@@H]3OC(=O)c4cc(O)c(O)c(O)c4-c4c(O)c(O)c5oc(=O)c6c(c(O)c(O)c7oc(=O)c4c5c76)-c4c(cc(O)c(O)c4O)C(=O)OC[C@H]3OC(O)[C@@H]2OC(=O)c2cc(O)c(O)c(O)c2-c2c1cc(O)c(O)c2O (mixture of isomers) [Punicalagin]
Inhibition%(80μM): 73.51% and 73.40% | inhibition at 80 µM: 75%

CC(C)=CCC(O)C1=CC(=O)c2c(O)ccc(O)c2C1=O (racemic) [(±)-Shikonin]
Inhibition%(80μM): 95.04% and 93.71% | inhibition at 80 µM: 87.6%

O=C(/C=C/c1ccc(O)c(O)c1)O[C@@H]1C[C@@](OC(=O)/C=C/c2ccc(O)c(O)c2)(C(=O)O)C[C@@H](O)[C@@H]1O [1,5-Dicaffeoylquinic Acid]
Inhibition%(80μM): 75.61% and 71.24% | inhibition at 80 µM: 74.6%

CC(=O)O[C@H]1[C@H](OCCc2ccc(O)c(O)c2)O[C@H](CO)[C@@H](OC(=O)/C=C/c2ccc(O)c(O)c2)[C@@H]1O[C@@H]1O[C@@H](C)[C@H](O)[C@@H](O)[C@H]1O [2'-Acetylacteoside]
Inhibition%(80μM): 93.37% and 90.77% | inhibition at 80 µM: 90.6%

CC1=CC(=O)C=C(C)C1=O [2,6-Dimethylbenzoquinone]
Inhibition%(80μM): 101.34% and 101.15% | inhibition at 80 µM: 102%

O=c1c(O)c(-c2ccc(O)c(O)c2)oc2cc(O)c(O)c(O)c12 [3,3',4',5,6,7-Hexahydroxyflavone]
Inhibition%(80μM): 99.40% and 98.98% and 98.10%

O=C(O)Cc1ccc(O)c(O)c1 [3,4-Dihydroxyphenylacetic Acid]
Inhibition%(80μM): 71.59% and 70.57% | inhibition at 80 µM: 72.4%

OCCc1ccc(O)c(O)c1 [3,4-Dihydroxyphenylethanol]
Inhibition%(80μM): 102.33% and 102.25% | inhibition at 80 µM: 101%

CC(=O)OC(C)(C)CC(=O)O[C@@H](CC=C(C)C)C1=CC(=O)c2c(O)ccc(O)c2C1=O [3-(Acetyloxy)-3-methylbutanoic acid (1S)-1-(1,4-dihydro-5,8-dihydroxy-1,4-dioxo-2-naphthalenyl)-4-methyl-3-pentenyl ester]
Inhibition%(80μM): 93.12% and 92.58% and 93.44%

Cc1ccc(O)c(O)c1 [4-Methylcatechol]
Inhibition%(80μM): 102.51% and 102.92% | inhibition at 80 µM: 103%

Cc1cc(=O)oc2cc(O)c(O)cc12 [4-Methylesculetin]
Inhibition%(80μM): 77.57% | inhibition at 80 µM (80 μM compound, second value column of Table S2): 79.9% | inhibition at 80 µM: 79.1%

COC(=O)[C@@H](Cc1ccc(O)c(O)c1)OC(=O)[C@@H]1c2c(/C=C/C(=O)O[C@H](Cc3ccc(O)c(O)c3)C(=O)O)ccc(O)c2O[C@H]1c1ccc(O)c(O)c1 [9'-Methyl Lithospermate B]
Inhibition%(80μM): 72.67% and 74.36% | inhibition at 80 µM: 73.6%

CCCCCCCC/C=C\CCCCCCCCC(=O)O [10Z-Nonadecenoic acid]
Inhibition%(80μM): 126.52% and 101.02% and 101.53%

OC[C@]1(O)COc2cc(O)ccc2-c2cc(O)c(O)cc2C1 [(7S)-3,7,10,11-Tetrahydroxy-7,8-dihydro-6H-dibenzo[b,d]oxocin-7-methanol]
Inhibition%(80μM): 101.15% and 101.14% and 101.45%

O=C(O[C@@H]1Cc2c(O)cc(O)cc2O[C@@H]1c1cc(O)c(O)c(O)c1)c1cc(O)c(O)c(O)c1 [(-)-Epigallocatechin Gallate]
Inhibition%(80μM): 85.53% and 79.02% | inhibition at 80 µM: 82.6%

CC(C)=CCC(OC(=O)C=C(C)C)C1=CC(=O)c2c(O)ccc(O)c2C1=O (stereo not drawn) [(β,β-Dimethylacryl)Shikonin]
Inhibition%(80μM): 82.39% and 82.91% and 82.80%

O=C(O[C@@H]1Cc2c(O)cc(O)cc2O[C@H]1c1cc(O)c(O)c(O)c1)c1cc(O)c(O)c(O)c1 [(−)–gallocatechin gallate, (-)-Gallocatechin Gallate]
Inhibition%(80μM): 102.08% and 101.74% | inhibition at 80 µM: 101%

O=C(O)c1ccc2c(c1)C(=O)c1ccccc1C2=O [Anthraquinone-2-Carboxylic Acid]
Inhibition%(80μM): 84.57% | inhibition at 80 µM: 85.4%

CCCCC/C=C\C/C=C\C/C=C\C/C=C\CCCC(=O)O [Arachidonic Acid]
Inhibition%(80μM): 76.72% and 73.70% | inhibition at 80 µM: 82.2%

C[C@@H]1OC(O[C@@H]2[C@@H](O)[C@H](OCCc3ccc(O)c(O)c3)O[C@H](CO[C@@H]3OC[C@@H](O)[C@H](O)[C@H]3O)[C@H]2OC(=O)/C=C/c2ccc(O)c(O)c2)[C@H](O)[C@H](O)[C@H]1O (some centres unmarked) [Arenarioside]
Inhibition%(80μM): 99.86% and 99.31% | inhibition at 80 µM: 99.1%

O=C(O)[C@H]1O[C@@H](Oc2cc3oc(-c4ccccc4)cc(=O)c3c(O)c2O)[C@H](O)[C@@H](O)[C@@H]1O [Baicalin]
Inhibition%(80μM): 72.02% | inhibition at 80 µM: 77.5%

Oc1ccc2c(c1)OC[C@]1(O)Cc3cc(O)c(O)cc3[C@H]21 [Brazilin]
Inhibition%(80μM): 101.06% and 101.28% | inhibition at 80 µM: 101%

O=C(O)[C@H]1O[C@@H](Oc2cc3oc(-c4ccc(O)cc4)cc(=O)c3c(O)c2O)[C@H](O)[C@@H](O)[C@@H]1O [Breviscapin]
Inhibition%(80μM): 78.06% and 77.78% | inhibition at 80 µM: 66%

CC(C)c1cc2c(c(O)c1O)[C@@]13CCCC(C)(C)[C@@H]1C[C@@H]2OC3=O [Carnosol]
Inhibition%(80μM): 73.35% and 80.59% | inhibition at 80 µM: 74.5%

CC1=C(O)C(=O)C=C2C1=CC=C1[C@@]2(C)CC[C@@]2(C)[C@@H]3C[C@](C)(C(=O)O)CC[C@]3(C)CC[C@]12C [Celastrol]
Inhibition%(80μM): 85.83% and 91.32% | inhibition at 80 µM: 89.6%

COc1ccc2c(c[n+](C)c3c4cc5c(cc4ccc23)OCO5)c1OC [Chelerythrine chloride]
Inhibition%(80μM): 98.66% and 98.31% and 98.46%

COc1ccc2c(c[n+](C)c3c4cc5c(cc4ccc23)OCO5)c1OC [Chelerythrine]
Inhibition%(80μM): 98.97% and 99.51% | inhibition at 80 µM: 99.4%

O=C(O[C@@H]1O[C@@H]2COC(=O)c3cc(O)c(O)c(O)c3-c3c(cc(O)c(O)c3O)C(=O)O[C@H]([C@H]1O)[C@@H]2O)c1cc(O)c(O)c(O)c1 [Corilagin]
Inhibition%(80μM): 101.84% and 101.22% | inhibition at 80 µM: 101%

CC(C)=CCCC1=CC(=O)c2c(O)ccc(O)c2C1=O [Deoxyshikonin]
Inhibition%(80μM): 88.46% and 84.98% | inhibition at 80 µM: 82.3%

O=C(/C=C/c1ccc(O)c(O)c1)OC[C@H]1O[C@@H](OCCc2ccc(O)c(O)c2)[C@H](O)[C@@H](O)[C@@H]1O [Desrhamnosyl Isoacteoside]
Inhibition%(80μM): 93.35% and 94.40% and 92.55%

CCCCC/C=C\C/C=C\CCCCCCCCCC(=O)O [Eicosadienoic Acid]
Inhibition%(80μM): 103.14% and 107.18% | inhibition at 80 µM: 105%

CCCCCCCC/C=C/CCCCCCCC(=O)O [Elaidic Acid]
Inhibition%(80μM): 79.40% and 87.31% | inhibition at 80 µM: 74.9%

CCCCCCCCCCCC1=C(O)C(=O)C=C(O)C1=O [Embelin]
Inhibition%(80μM): 89.75% and 99.35% | inhibition at 80 µM: 103%

CCCCCCCC/C=C\CCCCCCCCCCCC(=O)O [Erucic Acid]
Inhibition%(80μM): 99.68% and 100.48% | inhibition at 80 µM: 101%

C[C@@H]1O[C@@H](OC[C@H]2O[C@@H](OCCc3ccc(O)c(O)c3)[C@H](O)[C@@H](O)[C@@H]2OC(=O)/C=C/c2ccc(O)c(O)c2)[C@H](O)[C@H](O)[C@H]1O [Forsythoside A]
Inhibition%(80μM): 73.60% and 71.69% | inhibition at 80 µM: 77%

C[C@@H]1O[C@@H](OC[C@H]2O[C@@H](OCCc3ccc(O)c(O)c3)[C@H](O)[C@@H](O)[C@@H]2O)[C@H](O)[C@H](O)[C@H]1O [Forsythoside E]
Inhibition%(80μM): 102.62% and 100.37% | inhibition at 80 µM: 103%

CC(C)=CCC[C@]1(C)C=Cc2c(O)c3c(c(CC=C(C)C)c2O1)O[C@]12C(=C[C@@H]4C[C@H]1C(C)(C)O[C@@]2(C/C=C(/C)C(=O)O)C4=O)C3=O [Gambogic Acid]
Inhibition%(80μM): 78.61% and 79.43% | inhibition at 80 µM: 78.5%

O=C1O[C@H]2[C@@H]3OC(=O)c4cc(O)c(O)c(O)c4-c4c(cc(O)c(O)c4O)C(=O)OC[C@H]2O[C@@H](OC(=O)c2cc(O)c(O)c(O)c2)[C@@H]3OC(=O)c2cc(O)c(O)c3c2[C@@H]2C1=CC(=O)[C@](O)(O3)C2(O)O [Geraniin]
Inhibition%(80μM): 70.07% and 71.11% | inhibition at 80 µM: 71.6%

CCCCCC/C=C\CCCCCCCCCc1cccc(O)c1C(=O)O [Ginkgolic Acid C17:1]
Inhibition%(80μM): 100.63% and 101.61% | inhibition at 80 µM: 102%

Oc1cc(O)cc(/C=C/c2c(O)cccc2O)c1 [Gnetol]
Inhibition%(80μM): 81.39% and 81.62% | inhibition at 80 µM: 81.5%

O=C(O)CCc1ccc(O)c(O)c1 [Hydrocaffeic Acid]
Inhibition%(80μM): 90.29% and 90.08% | inhibition at 80 µM: 88.3%

O=c1oc2c(O)cc(O)cc2c2oc3cc(O)c(O)cc3c12 [Isodemethylwedelolacton]
Inhibition%(80μM): 99.38% and 99.79% | inhibition at 80 µM: 99.7%

C[C@@H]1O[C@@H](OC[C@H]2O[C@@H](OCCc3ccc(O)c(O)c3)[C@H](O)[C@@H](OC(=O)/C=C/c3ccc(O)c(O)c3)[C@@H]2O)[C@H](O)[C@H](O)[C@H]1O [Isoforsythiaside]
Inhibition%(80μM): 100.44% and 101.30% | inhibition at 80 µM: 100%

NCCCN(CCCCNCCCNC(=O)CCc1ccc(O)c(O)c1)C(=O)CCc1ccc(O)c(O)c1 [Kukoamine B]
Inhibition%(80μM): 103.22% and 104.32% | inhibition at 80 µM: 104%

O=c1c(O)c(-c2cc(O)c(O)c(O)c2)oc2cc(O)cc(O)c12 [Myricetin]
Inhibition%(80μM): 90.18% and 90.28% | inhibition at 80 µM: 90.6%

CCCCCCCCCCCCCC(=O)O [Myristic Acid]
Inhibition%(80μM): 82.11% and 84.30% | inhibition at 80 µM: 85%

CCCCCCCC/C=C\CCCCCCCCCCCCCC(=O)O [Nervonic Acid]
Inhibition%(80μM): 89.75% and 93.14% | inhibition at 80 µM: 93.6%

CCCCCCCC/C=C\CCCCCCCC(=O)O [Oleic Acid]
Inhibition%(80μM): 104.37% and 103.27% | inhibition at 80 µM: 104%

C/C=C1/[C@H](O[C@@H]2O[C@H](CO)[C@@H](O)[C@H](O)[C@H]2O)OC=C(C(=O)OC)[C@H]1CC(=O)OCCc1ccc(O)c(O)c1 [Oleuropein]
Inhibition%(80μM): 97.72% | inhibition at 80 µM: 96.6%

Source: article PMC10222270, “Natural Product-Based Screening for Lead Compounds Targeting SARS CoV-2 M^pro” (Pharmaceuticals, 2023)
